The structures appear in SMILES notation. Counter-ions that a name gives are not always drawn. Like-named read-outs stand apart in the source and are kept apart here.

This assay deals with T1, FAAH in human bladder epithelial cancer-derived cell line 5678 cells (Homo sapiens, UniProt O00519).
T1 construct: host or cells: human bladder epithelial cancer-derived cell line ('5678' [sic], HTB-9)
T1 sequence (O00519 1-579): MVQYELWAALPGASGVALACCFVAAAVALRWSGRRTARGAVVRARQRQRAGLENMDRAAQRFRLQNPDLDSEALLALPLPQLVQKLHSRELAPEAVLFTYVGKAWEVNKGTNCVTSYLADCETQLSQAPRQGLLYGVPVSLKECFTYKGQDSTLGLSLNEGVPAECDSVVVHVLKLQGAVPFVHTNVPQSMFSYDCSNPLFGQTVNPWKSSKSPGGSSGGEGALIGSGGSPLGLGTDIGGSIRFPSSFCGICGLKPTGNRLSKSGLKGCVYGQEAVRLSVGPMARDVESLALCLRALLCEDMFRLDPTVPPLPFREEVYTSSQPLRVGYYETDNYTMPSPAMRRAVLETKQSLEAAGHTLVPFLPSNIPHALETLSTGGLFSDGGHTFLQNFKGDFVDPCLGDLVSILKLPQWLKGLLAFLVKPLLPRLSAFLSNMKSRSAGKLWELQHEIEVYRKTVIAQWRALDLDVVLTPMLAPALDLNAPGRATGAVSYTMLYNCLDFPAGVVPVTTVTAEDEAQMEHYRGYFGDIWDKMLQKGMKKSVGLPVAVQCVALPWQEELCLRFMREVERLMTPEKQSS
Briefly: Screening for FAAH activity-inhibiting substance with human bladder epithelial cancer-derived cell (IC50, Table 64). The format is cell-based. The procedure: Screening for FAAH Activity-Inhibiting Substance with Human Bladder Epithelial Cancer-Derived Cell
(1) Screening for FAAH Activity-Inhibiting Substance:
Human bladder epithelial cancer-derived cell line […] cells (HTB-9; ATCC) were seeded on a 48-well cell culture plate in an amount of 1×10^5 cell/well, using 10% fetal bovine serum (HyClone)-containing RPMI1640 medium (Invitrogen). After incubated at 37° C. for at least 12 hours, the cells were washed with 400 μl/well of a buffer (Hank's Balanced Salt Solution, 20 mM Hepes-NaOH (pH 7.4)). A test substance dissolved in DMSO was added to a substrate solution (the above buffer containing 3 μCi/ml radiolabeled anandamide (Anandamide [ethanolamine 1-3H]) and 10 μM anandamide) so as to have a concentration of from 0.003 nM to 30 nM. As a control, DMSO alone was added. 100 μl/well of the substrate solution was added to the above cells, and incubated in a CO2 incubator at 37° C. for 30 minutes. Next, the cell culture plate was transferred onto ice, and the substrate solution was removed by suction; and 75 μl/well of a cytolytic solution (the above buffer containing 0.5% Triton X-100, and 10 μM of FAAH-inhibitory activity-having compound, 3′-carbamoylbiphenyl-3-yl cyclohexylcarbamate (URB597; Cayman chemical; Kathuria et al., Nature Med., Vol. 9, pp. 76-81, 2003)) was added thereto, followed by stirring. The resulting cell lysate in every well was individually transferred into a 1.5 ml sample tube, to which was added 150 μl of 1:1 (by volume) chloroform/methanol solution, followed by vortexing. This was centrifuged (15000 rpm, 2 minutes), whereby the decomposed product, ethanolamine (ethanolamine 1-^3H) was separated in the upper layer (water/methanol layer) and the unreacted radiolabeled anandamide was in the lower layer (chloroform layer). 25 μl of the upper layer was transferred into a 96-well organic solvent-resistant white microplate (PicoPlate-96; Perkin Elmer), 150 μl of Microscint-20 (Perkin Elmer) was added thereto, and this was measured with a microplate scintillation counter (TopCount™; Beckman). As compared with the control, the substance that gave a decreased value was selected as an FAAH activity-inhibiting substance.
(2) Measurement of IC50 Value of FAAH Activity-Inhibiting Substance:
A test compound dissolved in DMSO to have a concentration of 10 mM was dissolved in the substrate solution so as to have a varying concentration of from 0.003 nM to 30 μM. According to the method mentioned above, the compound was analyzed for its influence on FAAH activity. As a negative control, DMSO was used. As a positive control, URB597 was added to the substrate solution to have a concentration of 10 μM. Based on the measured value of the positive control, 0%, and on the measured value of the negative control, 100%, IC50 value of the test substance was obtained.

As for `O=C(c1ccc(OCc2cccc(F)c2)cc1)C1CCN(C(=O)Oc2cccnc2)CC1` [Example 3], the IC50 (as a rule, the concentration that inhibits the measured activity by half) was 0.073 nM.

As for `Cc1ccc(OC(=O)N2CCC(Oc3ccc(OCc4cccc(F)c4)cc3)CC2)cn1` [Example 13], the IC50 was 0.27 nM.

Turning to `CN(C)c1cncc(OC(=O)N2CCC(Oc3ccc(OCc4cccc(F)c4)cc3)CC2)c1` [Example 30], the 50% inhibitory concentration (IC50) worked out at 0.19 nM.

Consider `O=C(Oc1cncc(Cl)c1)N1CCC(Oc2ccc(OCc3cccc(F)c3)cc2)CC1` [Example 42], for which it took 0.43 nM to reach half-maximal inhibition (IC50).

`O=C(Oc1cccnc1)N1CCC(Oc2ccc(OCc3ccccc3)cc2Cl)CC1` [Example 51] came in with a half-maximal inhibitory concentration (IC50) of 0.26 nM.

In turn, `COC(=O)CCc1cncc(OC(=O)N2CCC(Oc3ccc(OCc4cccc(F)c4)cc3)CC2)c1` [Example 61] gave an IC50 of 0.35 nM.

For the molecule `O=C(Oc1cccnc1)N1CCC(Oc2ccc(OCc3ccccc3)c(Cl)c2)CC1` [Example 70], the IC50 was 0.099 nM.

`O=C(Oc1cccnc1)N1CCC(S(=O)(=O)c2ccc(OCc3cccc(F)c3)cc2)CC1` [Example 80] returned an IC50 of 0.044 nM.

The molecule `O=C(Oc1cccnc1)N1CCC(S(=O)(=O)c2ccc(OCc3ccccc3)cc2)CC1` [Example 88] registered an IC50 of 0.37 nM.

As to `CC(=O)OCc1cncc(OC(=O)N2CCC(Oc3ccc(OCc4cccc(F)c4)cc3)CC2)c1` [Example 100], the IC50 came to 0.035 nM.

The molecule `O=C(Oc1cccnc1)N1CCC(Sc2cccc(OCc3cccc(F)c3)c2)CC1` [Example 101] showed an IC50 of 0.078 nM.

Turning to `O=C(Oc1cccnc1)N1CCC(Oc2ccc(OCc3cccc(F)c3)cn2)CC1` [Example 103], the IC50 is 0.092 nM.

As to `O=C(Oc1cccnc1)N1CCC(c2cccc(OCCCc3ccccc3)c2)CC1` [Example 113], half-maximal inhibition (IC50) required 0.056 nM.

As for `O=C(Oc1cccnc1)N1CCN(C(=O)c2cccc(OCC3CCCCC3)c2)CC1` [Example 122], half-maximal inhibition (IC50) required 0.15 nM.

`O=C(Oc1cccnc1)N1CCN(C(=O)c2cccc(OCc3cccc(Cl)c3)c2)CC1` [Example 138] showed an IC50 of 0.078 nM.

The molecule `O=C(Oc1cccnc1)N1CCN(C(=O)c2ccc(OCc3cccc(C(F)(F)F)c3)cc2)CC1` [Example 149] displayed an IC50 of 0.45 nM.

With `O=C(Oc1cccnc1)N1CCN(C(=O)c2ccc(OCc3cc(F)cc(F)c3)cc2)CC1` [Example 152], the IC50 is 0.18 nM.

As for `O=C(Oc1cccnc1)N1CCN(C(=O)c2ccc(OCc3cccc([N+](=O)[O-])c3)cc2)CC1` [Example 154], it took 0.17 nM to reach half-maximal inhibition (IC50).

On to `O=C(Oc1cccnc1)N1CCN(C(=O)c2ccc(OCc3ccc(F)cc3)cc2)CC1` [Example 155], for which 0.061 nM corresponded to half-maximal inhibition (IC50).

In turn, `O=C(Oc1cccnc1)N1CCN(C(=O)c2ccc(OCc3cccc(Br)c3)cc2)CC1` [Example 159] returned an IC50 of 0.23 nM.

`O=C(Oc1cccnc1)N1CCN(C(=O)c2ccc(OCCc3cccc(Cl)c3)cc2)CC1` [Example 160] registered an IC50 of 0.51 nM.

`O=C(Nc1ccccc1)C1CCN(C(=O)Oc2cccnc2)CC1` [Example 173]: for the setting “human bladder epithelial cancer-derived cell line 5678 cells, read-out: cell FAAH IC50”, the IC50 came out at 0.69 nM.

Take `CCCCCCCCc1ccc(NC(=O)C2CCN(C(=O)Oc3cccnc3)CC2)cc1` [Example 176]: the IC50 was found to be 0.84 nM.

`O=C(Oc1cccnc1)N1CCC(Oc2ccc(OCc3cccc(Cl)c3)cc2)CC1` [Example 206, 3-pyridyl 4-{4-[(3-chlorobenzyl)oxy]phenoxy}-1-piperidinecarboxylate hydrochloride] yielded an IC50 of 0.17 nM.

In the case of `O=C(Oc1cccnc1)N1CCC(Oc2ccc(OCCC3CCCCC3)cc2)CC1` [Example 207], half-maximal inhibition (IC50) required 0.31 nM.

On to `O=C(Oc1cccnc1)N1CCC(Oc2ccc(OCc3ccccc3F)cc2)CC1` [Example 208], for which half-maximal inhibition (IC50) required 0.13 nM.

`NC(=O)c1cccc(-c2cncc(OC(=O)N3CCC(CCc4ccccc4)CC3)c2)c1` [Example 266] showed an IC50 of 0.31 nM.

In the case of `O=C(O)c1cncc(OC(=O)N2CCC(CCc3ccc(-c4ccccc4)cc3)CC2)c1` [Example 281], the IC50 stood at 0.082 nM.

As for `O=C(O)c1cncc(OC(=O)N2CCC(CCc3cccc(-c4ccccc4)c3)CC2)c1` [Example 293], the IC50 was 0.24 nM.

In the case of `N#Cc1cccc(-c2cccc(CCC3CCN(C(=O)Oc4cncc(C(=O)O)c4)CC3)c2)c1` [Example 294], the IC50 turned out to be 0.6 nM.

`COc1ccc(-c2ccc(CCC3CCN(C(=O)Oc4cncc(C(=O)O)c4)CC3)cc2)cc1` [Example 300]: the IC50 is 0.43 nM.

Turning to `N#Cc1ccc(-c2ccc(CCC3CCN(C(=O)Oc4cncc(C(=O)O)c4)CC3)cc2)cc1` [Example 301], the IC50 is 0.4 nM.

`O=C(O)c1cncc(OC(=O)N2CCC(CCc3ccc(-c4cccc(F)c4)cc3)CC2)c1` [Example 302] came in with an IC50 of 0.17 nM.

On to `COc1cccc(-c2ccc(CCC3CCN(C(=O)Oc4cncc(C(=O)O)c4)CC3)cc2)c1` [Example 303], for which the IC50 worked out at 0.12 nM.

Regarding `O=C(O)c1cncc(OC(=O)N2CCC(CCc3ccc(-c4ccccc4F)cc3)CC2)c1` [Example 304], the IC50 came out at 0.24 nM.

Molecule `O=C(O)c1cncc(OC(=O)N2CCC(CCCC3CCN(c4ccc5ccccc5n4)CC3)CC2)c1` [Example 315] showed an IC50 of 0.51 nM.

Take `COc1cccc(CCC2CCN(C(=O)Oc3cncc(C(=O)NCCO)c3)CC2)c1` [Example 328]: the IC50 amounted to 0.42 nM.

`N#Cc1cccc(CCC2CCN(C(=O)Oc3cncc(C(=O)NCCO)c3)CC2)c1` [Example 330] had an IC50 of 0.53 nM.

As to `NC(=O)CCNC(=O)c1cncc(OC(=O)N2CCC(CCc3ccccc3)CC2)c1` [Example 333], half-maximal inhibition (IC50) required 0.43 nM.

Take `NC(=O)c1cncc(OC(=O)N2CCC(CCc3ccc(-c4ccc(F)cc4)cc3)CC2)c1` [Example 338]: inhibition was half-maximal at 0.034 nM (IC50).

`NC(=O)c1cncc(OC(=O)N2CCC(CCc3cccc(-c4ccccc4)c3)CC2)c1` [Example 340] displayed an IC50 of 0.052 nM.

As for `N#Cc1cccc(-c2cccc(CCC3CCN(C(=O)Oc4cncc(C(N)=O)c4)CC3)c2)c1` [Example 341], the IC50 is 0.078 nM.

Turning to `N#Cc1ccc(-c2ccc(CCC3CCN(C(=O)Oc4cncc(C(N)=O)c4)CC3)cc2)cc1` [Example 344], the midpoint of inhibition, the IC50, lay at 0.13 nM.

Turning to `NC(=O)c1cncc(OC(=O)N2CCC(CCc3ccc(-c4cccc(F)c4)cc3)CC2)c1` [Example 345], the IC50 is 0.18 nM.

Regarding `NC(=O)c1cncc(OC(=O)N2CCC(CCc3ccc(-c4ccccc4F)cc3)CC2)c1` [Example 346], it took 0.27 nM to reach half-maximal inhibition (IC50).

With `NC(=O)c1cncc(OC(=O)N2CCC(CCc3cccc(-c4ccccn4)c3)CC2)c1` [Example 349], the IC50 worked out at 0.054 nM.

In the case of `NC(=O)c1cncc(OC(=O)N2CCC(CCc3cccc(C(=O)NC4CCCCC4)c3)CC2)c1` [Example 351], the IC50 amounted to 0.13 nM.

`CCN(CC)C(=O)c1ccc(CCC2CCN(C(=O)Oc3cncc(C(N)=O)c3)CC2)cc1` [Example 362]: the midpoint of inhibition, the IC50, lay at 0.42 nM.

In turn, `CC(C)NC(=O)c1cccc(CCC2CCN(C(=O)Oc3cncc(C(N)=O)c3)CC2)c1` [Example 372] displayed an IC50 of 0.49 nM.

For the molecule `Cc1cccc(N2CCC(CCCC3CCN(C(=O)Oc4cncc(C(N)=O)c4)CC3)CC2)n1` [Example 378], the IC50 came to 0.2 nM.

`NC(=O)c1cncc(OC(=O)N2CCC(CCCC3CCN(c4ccc5ccccc5n4)CC3)CC2)c1` [Example 380] yielded an IC50 of 0.35 nM.

Values taken from US7919495B2, “Pyridyl non-aromatic nitrogen-containing heterocyclic-1-carboxylate compound” (Astellas Pharma, Inc., priority 2005, dated 2011).
